The test deals with BDF1 mice, P388 leukemia ip, median survival T/C. The test can be described thus: NCI In Vivo Anticancer Drug Screen. Data for tumor model P388 Leukemia (intraperitoneal) in B6D2F1 (BDF1) mice. Conditions: endpoint: median survival time, higher = longer survival. The procedure, abridged:
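Transplantable tumour in mice; compound vs vehicle dosing; survival scored; ratio of treated to control reported.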

Where [1] appears, read: dose: 12.5 mg/kg/injection, schedule: Q01DX009 (ip), vehicle: saline with Tween-80.
[2] abbreviates: dose: 25.0 mg/kg/injection, schedule: Q01DX009 (ip), vehicle: saline with Tween-80.
[3] abbreviates: dose: 100.0 mg/kg/injection, schedule: Q04DX003 (ip), vehicle: saline with Tween-80.
The mark [4] stands for this setting: dose: 200.0 mg/kg/injection, schedule: Q04DX003 (ip), vehicle: saline with Tween-80.
Setting [5] is: dose: 400.0 mg/kg/injection, schedule: Q04DX003 (ip), vehicle: saline with Tween-80.
The mark [6] stands for this setting: dose: 50.0 mg/kg/injection, schedule: Q01DX009 (ip), vehicle: saline with Tween-80.
The mark [7] stands for this setting: dose: 100.0 mg/kg/injection, schedule: Q01DX009 (ip), vehicle: saline with Tween-80.
[8] abbreviates: dose: 100.0 mg/kg/injection, schedule: Q04DX003 (ip), vehicle: Klucel (hydroxypropylcellulose) (HPC).
Where [9] appears, read: dose: 200.0 mg/kg/injection, schedule: Q04DX003 (ip), vehicle: Klucel (hydroxypropylcellulose) (HPC).
[10] abbreviates: dose: 400.0 mg/kg/injection, schedule: Q04DX003 (ip), vehicle: Klucel (hydroxypropylcellulose) (HPC).
[11] abbreviates: dose: 100.0 mg/kg/injection, schedule: Q01DX009 (ip), vehicle: saline.
Where [12] appears, read: dose: 100.0 mg/kg/injection, schedule: Q01DX009 (ip), vehicle: Klucel (hydroxypropylcellulose) (HPC).
[13] abbreviates: dose: 200.0 mg/kg/injection, schedule: Q01DX009 (ip), vehicle: saline with Tween-80.

Structures are written as SMILES. Several values for one entry are separate records, joined by “and”; a condition that tells them apart may be missing. Equal values may be shown once. Inconclusive results and toxic doses are left out.

On to `Cc1cc(-c2ccc(NC(=O)Nc3cccc(F)c3)c(C)c2)ccc1NC(=O)Nc1cccc(F)c1`, for which the T/C reads like this: (dose: 50.0 mg/kg/injection, schedule: Q01DX005 (ip), vehicle: saline with Tween-80) 91 % of control; (dose: 100.0 mg/kg/injection, schedule: Q01DX005 (ip), vehicle: saline with Tween-80) 86 % of control; (dose: 200.0 mg/kg/injection, schedule: Q01DX005 (ip), vehicle: saline with Tween-80) 86 % of control.

For the compound `COC(=O)c1ccc(OP(=O)(N(C)C)N(C)C)cc1`, the T/C by setting is: under setting [1], 117 % of control; under setting [2], 115 % of control.

For `CNS(=O)(=O)c1ccc2c(c1)nc(SC)n2C`, the T/C under setting [3] was 100 % of control, the T/C under setting [4] is 100 % of control and the T/C under setting [5] was 104 % of control.

As to `O=C(N1CCCC1)C(F)(F)C(F)(F)C(F)(F)F`, the T/C reads like this: under setting [6], 90 % of control; under setting [7], 99 % of control.

On to `Nc1ccc(N=Nc2ccccc2)c(N)n1`, for which the T/C reads like this: (dose: 50.0 mg/kg/injection, schedule: Q04DX003 (ip), vehicle: Klucel (hydroxypropylcellulose) (HPC)) 100 % of control; under setting [8], 100 % of control.

As for `CCCCCCCCCCC(CCCCCCCCCC)CCCCCCCCC(CCCCCCCCCC)CCCCCCCCCC`, the T/C is, setting by setting: under setting [8], 108 % of control; under setting [9], 93 % of control; under setting [10], 97 % of control.

On to `C=CCNC(=S)Nc1ccc(N(C)C)cc1`, for which the T/C is, setting by setting: (dose: 50.0 mg/kg/injection, schedule: Q04DX003 (ip), vehicle: saline with Tween-80) 100 % of control; under setting [3], 95 % of control; under setting [4], 109 % of control.

In the case of `CCOC1OCN(C)CC1(C)C` (stereo not given), the T/C under setting [1] was 115 % of control; the T/C under setting [2] was 120 % of control; the T/C (dose: 66.0 mg/kg/injection, schedule: Q01DX009 (ip), vehicle: saline) was 115 % of control; the T/C under setting [11] is 119 % of control; the T/C (dose: 150.0 mg/kg/injection, schedule: Q01DX009 (ip), vehicle: saline) was 154 % of control.

For `Cc1ccc(C(=O)[O][Hg][CH2]C2COC([CH2][Hg][O]C(=O)c3ccc(C)cc3)CO2)cc1` (stereo not given), the T/C runs as follows: (dose: 2.25 mg/kg/injection, schedule: Q01DX009 (ip), vehicle: saline with Tween-80) 90 % of control; (dose: 6.25 mg/kg/injection, schedule: Q01DX009 (ip), vehicle: saline sonified) 110 % of control; (dose: 6.25 mg/kg/injection, schedule: Q04DX003 (ip), vehicle: saline with Tween-80) 107 % of control; (dose: 12.5 mg/kg/injection, schedule: Q04DX003 (ip), vehicle: saline with Tween-80) 107 % of control; (dose: 25.0 mg/kg/injection, schedule: Q01DX009 (ip), vehicle: Klucel (hydroxypropylcellulose) (HPC)) 109 % of control; (dose: 25.0 mg/kg/injection, schedule: Q01DX009 (ip), vehicle: saline sonified) 150 % of control. Moreover, the T/C was 103 % of control (dose: 25.0 mg/kg/injection, schedule: Q04DX003 (ip), vehicle: saline with Tween-80); 109 % of control (dose: 50.0 mg/kg/injection, schedule: Q01DX009 (ip), vehicle: Klucel (hydroxypropylcellulose) (HPC)); 86 % of control under setting [12]; 109 % of control (dose: 225.0 mg/kg/injection, schedule: Q04DX003 (ip), vehicle: Klucel (hydroxypropylcellulose) (HPC)).

As for `CC[As](=O)(O)CC`, the T/C was 103 % of control (dose: 50.0 mg/kg/injection, schedule: Q01DX009 (ip), vehicle: saline); 100 % of control (dose: 50.0 mg/kg/injection, schedule: Q04DX003 (ip), vehicle: saline); 100 % of control and 108 % of control under setting [11]; 95 % of control (dose: 132.0 mg/kg/injection, schedule: Q01DX009 (ip), vehicle: saline); 108 % of control (dose: 200.0 mg/kg/injection, schedule: Q04DX003 (ip), vehicle: saline).

Regarding `CCCCCCCCCC(=O)OCC1OC(=O)C(C)N(C)C(=O)CN(C)C(=O)C2C(=O)CC(C)N2C(=O)C(C(C)C)NC(=O)C1NC(=O)c1c2nc3c(C(=O)NC4C(=O)NC(C(C)C)C(=O)N5C(C)CC(OC(=O)CCCCCCCCC)C5C(=O)N(C)CC(=O)N(C)C(C(C)C)C(=O)OC4C)ccc(C)c3oc-2c(C)c(=O)c1N` (stereo not given), the T/C was 105 % of control (dose: 0.1 mg/kg/injection, schedule: Q01DX009 (ip), vehicle: saline with Tween-80); 93 % of control (dose: 0.2 mg/kg/injection, schedule: Q01DX009 (ip), vehicle: saline with Tween-80); 107 % of control (dose: 0.3 mg/kg/injection, schedule: Q04DX003 (ip), vehicle: saline with Tween-80); 89 % of control (dose: 0.4 mg/kg/injection, schedule: Q01DX009 (ip), vehicle: saline with Tween-80); 92 % of control (dose: 0.6 mg/kg/injection, schedule: Q04DX003 (ip), vehicle: saline with Tween-80); 98 % of control (dose: 0.8 mg/kg/injection, schedule: Q01DX001 (ip), vehicle: saline with Tween-80). Further, the T/C runs as follows: (dose: 0.8 mg/kg/injection, schedule: Q01DX009 (ip), vehicle: saline with Tween-80) 96 % of control; (dose: 1.6 mg/kg/injection, schedule: Q01DX001 (ip), vehicle: saline with Tween-80) 107 % of control; (dose: 1.6 mg/kg/injection, schedule: Q01DX009 (ip), vehicle: saline with Tween-80) 117 % of control; (dose: 2.4 mg/kg/injection, schedule: Q04DX003 (ip), vehicle: saline with Tween-80) 96 % of control; (dose: 3.2 mg/kg/injection, schedule: Q01DX001 (ip), vehicle: saline with Tween-80) 100 % of control; (dose: 4.8 mg/kg/injection, schedule: Q04DX003 (ip), vehicle: saline with Tween-80) 92 % of control. Also, the T/C (dose: 6.4 mg/kg/injection, schedule: Q01DX001 (ip), vehicle: saline with Tween-80) is 100 % of control and the T/C (dose: 12.8 mg/kg/injection, schedule: Q01DX001 (ip), vehicle: saline with Tween-80) is 97 % of control.

As for `COc1cc(C(=O)O)c2c(c1C)OC(=O)c1c(C)cc(O)c(C=O)c1O2`, the T/C is, setting by setting: (dose: 2.0 mg/kg/injection, schedule: Q01DX010 (ip), vehicle: saline) 95 % of control; (dose: 4.0 mg/kg/injection, schedule: Q01DX009 (ip), vehicle: Klucel (hydroxypropylcellulose) (HPC)) 109 % of control; (dose: 4.0 mg/kg/injection, schedule: Q01DX010 (ip), vehicle: saline) 90 % of control and 122 % of control and 123 % of control; (dose: 8.0 mg/kg/injection, schedule: Q01DX010 (ip), vehicle: saline) 90 % of control; (dose: 10.0 mg/kg/injection, schedule: Q04DX003 (ip), vehicle: saline) 104 % of control; (dose: 16.0 mg/kg/injection, schedule: Q01DX010 (ip), vehicle: saline) 113 % of control and 123 % of control. Besides, the T/C is, setting by setting: (dose: 20.0 mg/kg/injection, schedule: Q04DX003 (ip), vehicle: saline) 115 % of control; (dose: 40.0 mg/kg/injection, schedule: Q01DX001 (ip), vehicle: saline) 111 % of control; (dose: 80.0 mg/kg/injection, schedule: Q01DX001 (ip), vehicle: saline) 115 % of control; (dose: 80.0 mg/kg/injection, schedule: Q04DX003 (ip), vehicle: saline) 104 % of control.

As to `C#C[C@]1(O)CC[C@H]2[C@@H]3CCc4cc(O)ccc4[C@H]3CC[C@@]21C`, the T/C is 95 % of control under setting [12]; 104 % of control under setting [8]; 87 % of control (dose: 200.0 mg/kg/injection, schedule: Q01DX009 (ip), vehicle: Klucel (hydroxypropylcellulose) (HPC)); 104 % of control under setting [9]; 95 % of control under setting [10].

As to `O=c1cc(O)ccn1CCc1cccs1`, the T/C is 109 % of control under setting [1]; 109 % of control under setting [2]; 121 % of control under setting [6]; 105 % of control under setting [7]; 114 % of control under setting [3]; 112 % of control under setting [13]. For the same compound, the T/C is, setting by setting: under setting [4], 110 % of control; (dose: 400.0 mg/kg/injection, schedule: Q01DX009 (ip), vehicle: saline with Tween-80) 110 % of control; under setting [5], 119 % of control.

Consider `N=C(N)SCCCCCCCCCCSC(=N)N`, for which the T/C runs as follows: under setting [2], 97 % of control; under setting [6], 123 % of control.

In the case of `O=C(Nc1cccc(S(=O)(=O)F)c1)c1ccc(COc2ccc([N+](=O)[O-])cc2Cl)cc1`, the T/C runs as follows: under setting [7], 91 % of control; under setting [13], 91 % of control.
